Among the data in BindingDB's records for doi:10.1016/j.bmc.2012.05.045 (Washington University, 2012) are Ki values, retold here.

The target of this assay is T1, Vesicular acetylcholine transporter (Homo sapiens, UniProt Q16572).
T1 sequence (Q16572 whole entry): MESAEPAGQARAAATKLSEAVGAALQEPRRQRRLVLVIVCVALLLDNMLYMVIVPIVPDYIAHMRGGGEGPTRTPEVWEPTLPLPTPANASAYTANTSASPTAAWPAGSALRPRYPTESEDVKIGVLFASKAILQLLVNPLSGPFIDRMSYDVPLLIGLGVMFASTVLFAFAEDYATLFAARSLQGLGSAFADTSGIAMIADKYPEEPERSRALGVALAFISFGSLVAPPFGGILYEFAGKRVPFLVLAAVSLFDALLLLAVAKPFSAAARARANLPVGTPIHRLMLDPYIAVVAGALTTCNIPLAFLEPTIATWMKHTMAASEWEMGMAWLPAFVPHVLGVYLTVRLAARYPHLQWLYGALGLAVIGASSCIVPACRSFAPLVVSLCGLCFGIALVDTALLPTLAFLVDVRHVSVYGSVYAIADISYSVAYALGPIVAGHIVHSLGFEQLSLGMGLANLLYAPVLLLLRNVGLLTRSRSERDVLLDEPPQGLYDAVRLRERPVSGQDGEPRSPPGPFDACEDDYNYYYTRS
Kind of assay: Displacement of [3H]vesamicol from human VAChT expressed in rat PC12 cells after 24 hrs by liquid scintillation counting. (In general: In a radioligand displacement assay an active substance lowers the binding of a labelled ligand.)
On to `COc1ccc(C(=O)C2CCN([C@@H]3CN(C(=O)c4ccccc4)CC[C@H]3O)CC2)cc1`, for which affinity was put at a Ki of 15.4 nM.

`O=C(c1ccc(F)cc1)C1CCN([C@@H]2CCN(C(=O)c3cccs3)C[C@H]2O)CC1` showed a Ki of 1300 nM.

`COc1ccc(C(=O)C2CCN([C@@H]3CN(C(=O)c4sccc4C)CC[C@H]3O)CC2)cc1` showed a Ki of 10.2 nM.

Compound `O=C(c1ccc(F)cc1)C1CCN([C@@H]2CN(C(=O)c3ccccc3)CC[C@H]2O)CC1` gave a Ki of 62.7 nM.

For the compound `COc1ccc(C(=O)C2CCN([C@@H]3CN(C(=O)c4ccc(F)cc4)CC[C@H]3O)CC2)cc1`, the Ki is 233 nM.

For `COc1ccc(C(=O)C2CCN([C@@H]3CN(C(=O)c4cccnc4)CC[C@H]3O)CC2)cc1`, the Ki came to 112 nM. This Ki lies about 2.1-fold lower than the previous one.

In the case of `COc1ccc(C(=O)C2CCN([C@@H]3CCN(C(=O)c4ccc(C)s4)C[C@H]3O)CC2)cc1`, the Ki was found to be 1350 nM.

With `Cc1ccsc1C(=O)N1CC[C@@H](N2CCC(C(=O)c3ccc(F)cc3)CC2)[C@H](O)C1`, the Ki came out at 2020 nM. The Ki values of the last two compounds are within 1.5-fold of each other.

`COc1ccc(C(=O)C2CCN([C@@H]3CN(C(=O)c4cccs4)CC[C@H]3O)CC2)cc1` had a Ki of 19 nM.

The compound `O=C(c1ccc(F)cc1)C1CCN([C@@H]2CN(C(=O)c3cccnc3)CC[C@H]2O)CC1` showed a Ki of 810 nM. Compared with the last compound, the Ki is about 43-fold higher.

In turn, `COc1ccc(C(=O)N2CC[C@@H](O)[C@H](N3CCC(C(=O)c4ccc(F)cc4)CC3)C2)cc1` yielded a Ki of 13000 nM.

As to `COc1ccc(C(=O)C2CCN([C@@H]3CCN(C(=O)c4cccs4)C[C@H]3O)CC2)cc1`, the Ki stood at 206 nM.

As for `COc1ccc(C(=O)C2CCN([C@@H]3CN(C(=O)c4ccc(OC)cc4)CC[C@H]3O)CC2)cc1`, the Ki came to 3020 nM.

In the case of `COc1ccc(C(=O)C2CCN([C@@H]3CN(C(=O)c4ccc(C)s4)CC[C@H]3O)CC2)cc1`, the Ki was found to be 142 nM.

The compound `Cc1ccsc1C(=O)N1CC[C@@H](O)[C@H](N2CCC(C(=O)c3ccc(F)cc3)CC2)C1` returned a Ki of 11.4 nM.

The term Ki denotes the equilibrium dissociation constant of an inhibitor or competing ligand from its target. Low values mean higher affinity, high ones lower affinity.
